Source: ChEMBL document CHEMBL1129697, “Synthesis and anticonvulsant evaluation of a series of (R)- and (S)-N-Cbz--aminoglutarimide and succinimide” (Bioorg Med Chem Lett, 1996)
Active and inactive are the calls of the source. The calls are words filed in the database; no cut-off is given here.

Legend:
[1] = species: Mus musculus; test: Compound was tested for anticonvulsant activity in male mice using maximal electric shock seizure test.; format: functional
[2] = system: Mus musculus; test: Compound was tested for anticonvulsant activity in male mice by pentylenetetrazole (80 mg/kg, sc) induced seizure test.; format: functional
[3] = Compound was tested for neurotoxic activity in male mice using rotarod test.; format: ADME; conditions: mouse, in vivo
[4] = Compound was tested for anticonvulsant activity in male mice by pentylenetetrazole (80 mg/kg, sc) induced seizure test.; Protective index = TD50/ED50; format: ADME, organism-based; conditions: mouse, in vivo, read-out: PI
[5] = Compound was tested for anticonvulsant activity in male mice using maximal electric shock seizure test; Protective index = TD50/ED50; format: ADME; conditions: mouse, read-out: PI
[6] = species: Mus musculus; test: Compound was tested for anticonvulsant activity in male mice using maximal electric shock seizure test; No effect; format: functional, organism-based
[7] = Compound was tested for anticonvulsant activity in male mice using maximal electric shock seizure test.; Protective index = TD50/ED50; format: ADME; conditions: mouse, read-out: PI
[8] = system: Mus musculus; test: Compound was tested for anticonvulsant activity in male mice by pentylenetetrazole (80 mg/kg, sc) induced seizure test.; No effect; format: functional, organism-based

SMILES	ED50 [1] [mg/kg]	ED50 [2] [mg/kg]	TD50 [3] [mg/kg]	selectivity ratio [4]	selectivity ratio [5]	ED50 [6]	selectivity ratio [7]	ED50 [8]
CCCC(CCC)C(=O)O [VALPROIC ACID]	272	149						
CN1C(=O)CC(C)(c2ccccc2)C1=O (stereo not drawn) [METHSUXIMIDE]	42.6	34.5	130	3.7	3.1			
CN1C(=O)C[C@H](NC(=O)OCc2ccccc2)C1=O	61.2	113	118	1	1.9			
CN1C(=O)C[C@@H](NC(=O)OCc2ccccc2)C1=O	52.5	82.5	167	2	3.2			
CCC1(C)CC(=O)NC1=O (stereo not drawn) [ETHOSUXIMIDE]		130		3.4		inactive		
O=C1C[C@@H](NC(=O)OCc2ccccc2)C(=O)N1	125	110	178	1.6	1.4			
CN1C(=O)OC(C)(C)C1=O [TRIMETHADIONE]	704	250	1070	4.3	1.5			
O=C1C[C@H](NC(=O)OCc2ccccc2)C(=O)N1	103	78.1	161	2.1	1.6			
O=C1CC[C@H](NC(=O)OCc2ccccc2)C(=O)N1	43.1	42.5	130	3.1	3			
CN1C(=O)CC[C@@H](NC(=O)OCc2ccccc2)C1=O	47.5	24.4	120	4.9			2.5	
CN1C(=O)CC[C@H](NC(=O)OCc2ccccc2)C1=O	36.1	12.5	62.5	5	1.7			
CCC1(c2ccccc2)C(=O)NC(=O)NC1=O [PHENOBARBITAL]	21.8	13.1						
O=C1NC(=O)C(c2ccccc2)(c2ccccc2)N1								inactive
O=C1CC[C@@H](NC(=O)OCc2ccccc2)C(=O)N1	56.3	46.9	122	2.6	2.2			
